In ChEMBL document CHEMBL3046635, “Synthesis and Herbicidal Activity of New Pyrazole-4-carboxamide Derivatives” (J Pestic Sci, 2004):
The source made the active and inactive calls. Unless noted, the calls are words filed in the database; no cut-off is given here.

How the values were obtained:
[1] = system: Eleocharis acicularis; experiment: Pre-emergence herbicidal activity against Eleocharis acicularis at 100 g a.i/ha measured after 14 days; format: functional, organism-based
[2] = system: Oryza sativa; experiment: Phytotoxicity against Oryza sativa cv. Koshihikari (rice) at 100 g a.i/ha measured after 14 days; format: organism-based; conditions: in vivo, 336 h
[3] = system: Schoenoplectiella juncoides; experiment: Pre-emergence herbicidal activity against Schoenoplectiella juncoides at 100 g a.i/ha measured after 14 days; format: functional, organism-based
[4] = system: Pontederia vaginalis; experiment: Pre-emergence herbicidal activity against Monochoria vaginalis at 100 g a.i/ha measured after 14 days; format: functional, organism-based
[5] = system: Ammannia multiflora; experiment: Pre-emergence herbicidal activity against Ammannia multiflora at 100 g a.i/ha measured after 14 days; format: functional, organism-based
[6] = system: Rotala indica; experiment: Pre-emergence herbicidal activity against Rotala indica at 100 g a.i/ha measured after 14 days; format: functional, organism-based
[7] = system: Elatine triandra; experiment: Pre-emergence herbicidal activity against Elatine triandra at 100 g a.i/ha measured after 14 days; format: functional, organism-based
[8] = system: Lindernia procumbens; experiment: Pre-emergence herbicidal activity against Lindernia procumbens at 100 g a.i/ha measured after 14 days; format: functional, organism-based
[9] = system: Cyperus difformis; experiment: Pre-emergence herbicidal activity against Cyperus difformis at 100 g a.i/ha measured after 14 days; format: functional, organism-based
[10] = system: Echinochloa oryzicola; experiment: Pre-emergence herbicidal activity against Echinochloa oryzicola at 100 g a.i/ha measured after 14 days; format: functional, organism-based
[11] = system: Oryza sativa; experiment: Phytotoxicity against Oryza sativa cv. Koshihikari (rice) at 500 g a.i/ha measured after 14 days; format: organism-based; conditions: in vivo, 336 h
[12] = system: Eleocharis acicularis; experiment: Pre-emergence herbicidal activity against Eleocharis acicularis at 500 g a.i/ha measured after 14 days; format: functional, organism-based
[13] = system: Pontederia vaginalis; experiment: Pre-emergence herbicidal activity against Monochoria vaginalis at 500 g a.i/ha measured after 14 days; format: functional, organism-based
[14] = system: Schoenoplectiella juncoides; experiment: Pre-emergence herbicidal activity against Schoenoplectiella juncoides at 500 g a.i/ha measured after 14 days; format: functional, organism-based
[15] = system: Ammannia multiflora; experiment: Pre-emergence herbicidal activity against Ammannia multiflora at 500 g a.i/ha measured after 14 days; format: functional, organism-based
[16] = system: Elatine triandra; experiment: Pre-emergence herbicidal activity against Elatine triandra at 500 g a.i/ha measured after 14 days; format: functional, organism-based
[17] = system: Rotala indica; experiment: Pre-emergence herbicidal activity against Rotala indica at 500 g a.i/ha measured after 14 days; format: functional, organism-based
[18] = system: Lindernia procumbens; experiment: Pre-emergence herbicidal activity against Lindernia procumbens at 500 g a.i/ha measured after 14 days; format: functional, organism-based
[19] = system: Echinochloa oryzicola; experiment: Pre-emergence herbicidal activity against Echinochloa oryzicola at 500 g a.i/ha measured after 14 days; format: functional, organism-based
[20] = system: Cyperus difformis; experiment: Pre-emergence herbicidal activity against Cyperus difformis at 500 g a.i/ha measured after 14 days; format: functional, organism-based
[21] = system: Eleocharis acicularis; experiment: Post-emergence herbicidal activity against Eleocharis acicularis assessed as bleaching of stem/leaf parts; format: functional, organism-based; further: test concentration or dose not given here
[22] = system: Eleocharis acicularis; experiment: Pre-emergence herbicidal activity against Eleocharis acicularis assessed as bleaching of stem/leaf parts; format: functional, organism-based
[23] = system: Ammannia multiflora; experiment: Pre-emergence herbicidal activity against Ammannia multiflora assessed as bleaching of stem/leaf parts; format: functional, organism-based
[24] = system: Rotala indica; experiment: Pre-emergence herbicidal activity against Rotala indica assessed as bleaching of stem/leaf parts; format: functional, organism-based
[25] = system: Elatine triandra; experiment: Pre-emergence herbicidal activity against Elatine triandra assessed as bleaching of stem/leaf parts; format: functional, organism-based
[26] = system: Lindernia procumbens; experiment: Pre-emergence herbicidal activity against Lindernia procumbens assessed as bleaching of stem/leaf parts; format: functional, organism-based
[27] = system: Schoenoplectiella juncoides; experiment: Pre-emergence herbicidal activity against Schoenoplectiella juncoides assessed as bleaching of stem/leaf parts; format: functional, organism-based
[28] = system: Pontederia vaginalis; experiment: Pre-emergence herbicidal activity against Monochoria vaginalis assessed as bleaching of stem/leaf parts; format: functional, organism-based
[29] = system: Cyperus difformis; experiment: Pre-emergence herbicidal activity against Cyperus difformis assessed as bleaching of stem/leaf parts; format: functional, organism-based
[30] = system: Echinochloa oryzicola; experiment: Pre-emergence herbicidal activity against Echinochloa oryzicola assessed as bleaching of stem/leaf parts; format: functional, organism-based
[31] = system: Ammannia multiflora; experiment: Post-emergence herbicidal activity against Ammannia multiflora assessed as bleaching of stem/leaf parts; format: functional, organism-based; further: test concentration or dose not given here
[32] = system: Elatine triandra; experiment: Post-emergence herbicidal activity against Elatine triandra assessed as bleaching of stem/leaf parts; format: functional, organism-based; further: test concentration or dose not given here
[33] = system: Rotala indica; experiment: Post-emergence herbicidal activity against Rotala indica assessed as bleaching of stem/leaf parts; format: functional, organism-based; further: test concentration or dose not given here
[34] = system: Schoenoplectiella juncoides; experiment: Post-emergence herbicidal activity against Schoenoplectiella juncoides assessed as bleaching of stem/leaf parts; format: functional, organism-based; further: test concentration or dose not given here
[35] = system: Lindernia procumbens; experiment: Post-emergence herbicidal activity against Lindernia procumbens assessed as bleaching of stem/leaf parts; format: functional, organism-based; further: test concentration or dose not given here
[36] = system: Pontederia vaginalis; experiment: Post-emergence herbicidal activity against Monochoria vaginalis assessed as bleaching of stem/leaf parts; format: functional, organism-based; further: test concentration or dose not given here
[37] = system: Cyperus difformis; experiment: Post-emergence herbicidal activity against Cyperus difformis assessed as bleaching of stem/leaf parts; format: functional, organism-based; further: test concentration or dose not given here
[38] = system: Echinochloa oryzicola; experiment: Post-emergence herbicidal activity against Echinochloa oryzicola assessed as bleaching of stem/leaf parts; format: functional, organism-based; further: test concentration or dose not given here

SMILES	Activity [1]	Activity [2]	Activity [3]	Activity [4]	Activity [5]	Activity [6]	Activity [7]	Activity [8]	Activity [9]	Activity [10]	Activity [11]	Activity [12]	Activity [13]	Activity [14]	Activity [15]	Activity [16]	Activity [17]	Activity [18]	Activity [19]	Activity [20]	other results
CCONC(=O)c1cn(C)nc1OCc1cccc(C(F)(F)F)c1	Active	Non-toxic	Active	Active	Active	Active	Active	Active	Active	Active	Non-toxic	Active	Active	Active	Active	Active	Active	Active	Active	Active	Activity [21]: Active; Activity [22]: Active; Activity [23]: Active; Activity [24]: Active; Activity [25]: Active; Activity [26]: Active; Activity [27]: Active; Activity [28]: Active; Activity [29]: Active; Activity [30]: Active; Activity [31]: Active; Activity [32]: Active; Activity [33]: Active; Activity [34]: Active; Activity [35]: Active; Activity [36]: Active; Activity [37]: Active; Activity [38]: Active
Cn1cc(C(=O)Nc2ccccc2)c(OCc2cccc(C(F)(F)F)c2)n1	Active	Non-toxic	inactive	Active	Active	Active	Active	Active	inactive	Active	Non-toxic	Active	Active	Active	Active	Active	Active	Active	Active	Active	Activity [21]: Active; Activity [22]: Active; Activity [23]: Active; Activity [24]: Active; Activity [25]: Active; Activity [26]: Active; Activity [27]: Active; Activity [28]: Active; Activity [29]: Active; Activity [30]: Active; Activity [31]: Active; Activity [32]: Active; Activity [33]: Active; Activity [34]: Active; Activity [35]: Active; Activity [36]: Active; Activity [37]: Active; Activity [38]: Active
Cn1cc(C(=O)NOc2cccc(Cl)c2)c(OCc2cccc(C(F)(F)F)c2)n1	Active	Non-toxic	Active	Active	Active	Active	Active	Active	Active	Active	Non-toxic	Active	Active	Active	Active	Active	Active	Active	Active	Active	Activity [21]: Active; Activity [22]: Active; Activity [23]: Active; Activity [24]: Active; Activity [25]: Active; Activity [26]: Active; Activity [27]: Active; Activity [28]: Active; Activity [29]: Active; Activity [30]: Active; Activity [31]: Active; Activity [32]: Active; Activity [33]: Active; Activity [34]: Active; Activity [35]: Active; Activity [36]: Active; Activity [37]: Active; Activity [38]: Active
Cn1cc(C(=O)Nc2ccc(F)cc2F)c(OCc2cccc(C(F)(F)F)c2)n1	Active	Non-toxic	inactive	Active	Active	Active	Active	Active	Active	inactive	Toxic	Active	Active	Active	Active	Active	Active	Active	inactive	Active	Activity [21]: Active; Activity [22]: Active; Activity [23]: Active; Activity [24]: Active; Activity [25]: Active; Activity [26]: Active; Activity [27]: Active; Activity [28]: Active; Activity [29]: Active; Activity [30]: Active; Activity [31]: Active; Activity [32]: Active; Activity [33]: Active; Activity [34]: Active; Activity [35]: Active; Activity [36]: Active; Activity [37]: Active; Activity [38]: Active
